The results in this text go back to publication PMC11066877, “Development and Characterization of Novel FAP-Targeted Theranostic Pairs: A Bench-to-Bedside Study” (Research, 2023).

Holding throughout (type): in vivo, mice
Data set [1] in a line: microPET/CT imaging, ROI analysis, BxPC-3 tumor models. The conditions noted are these: nude (thymus-free), mouse, intravenous, 3 MBq, 4 h p.i. As for the experimental part: (§1) A human pancreatic cancer cell line BxPC-3 and a murine pancreatic cancer cell Panc-02 were obtained from the American Type Culture Collection. The pancreatic cancer cell line T3M-4 was purchased by MeisenCTCC (Zhejiang, China). BxPC-3 and T3M-4 cell lines were grown in RPMI 1640 medium (Shanghai BasalMedia Technologies Co., LTD.) containing 10% FBS (GE Healthcare, Chicago, IL, USA) and 1% penicillin–streptomycin solution (Invitrogen). To culture the Panc-02 cell line, a medium called Dulbecco’s modified Eagle medium from Shanghai BasalMedia Technologies Co., LTD. was used, which consisted of 10% FBS. The cell line HT-1080 was grown in MEM medium (Shanghai BasalMedia Technologies Co., LTD.) supplemented with 10% FBS, 1% penicillin-streptomycin solution, and 1% nonessential amino acids (NEAA-11140050; Gibco). A human fibrosarcoma cell line was stably transfected with FAP (HT1080-FAP) and cultured, as we previously described. All cell lines were cultured in a humid incubator with 5% CO2 at a temperature of 37 °C. Approval was granted by the Institutional Animal Care and Use Committee (Renji Hospital, School of Medicine, Shanghai Jiao Tong University) for all experimental protocols and procedures related to animal care. Panc-02 cells were implanted by subcutaneous injection of 5 × 10^6 tumor cells suspended in 100 μl PBS and matrigel matrix (Corning) with equal volume into the upper limb flank of C57BL/6 mice (Shanghai Sheng Chang Biotechnology Co., Ltd.). Four- to 6-week-old thymus-free nude mice (GemPharmatech) were subcutaneously inoculated with BxPC-3, T3M-4, HT-1080, and HT1080-FAP cells (5 × 10^6 in 100 μl of PBS mixing with 100 μl matrigel matrix) in the right shoulder. […]
(§2) MicroPET imaging was performed on isoflurane-anesthetized mice injected intravenously via the lateral tail vein with around 3 MBq (2.5 nmol) of the radioligand at certain times. […] The information was analyzed using OsiriX Lite software (Pixmeo SARL) and Inveon Research Workplace (Siemens Preclinical Solutions). […]

A short description of data set [2]: microPET/CT imaging, ROI analysis, Panc-02 tumor models. The conditions noted are these: C57BL/6, mouse, intravenous, 3 MBq, 4 h p.i. As for the experimental part: as §1, §2
A short description of data set [3]: microPET/CT imaging, ROI analysis, HT-1080 tumor models. The conditions noted are these: nude (thymus-free), mouse, intravenous, 3 MBq, 4 h p.i. As for the experimental part: as §1, §2
Data set [4] is described as follows: microPET/CT imaging, ROI analysis, HT1080-FAP tumor models. The conditions noted are these: nude (thymus-free), mouse, intravenous, 3 MBq, HT1080-FAP tumor. As for the experimental part:
(§3) A human pancreatic cancer cell line BxPC-3 and a murine pancreatic cancer cell Panc-02 were obtained from the American Type Culture Collection. The pancreatic cancer cell line T3M-4 was purchased by MeisenCTCC (Zhejiang, China). BxPC-3 and T3M-4 cell lines were grown in RPMI 1640 medium (Shanghai BasalMedia Technologies Co., LTD.) containing 10% FBS (GE Healthcare, Chicago, IL, USA) and 1% penicillin–streptomycin solution (Invitrogen). To culture the Panc-02 cell line, a medium called Dulbecco’s modified Eagle medium from Shanghai BasalMedia Technologies Co., LTD. was used, which consisted of 10% FBS. The cell line HT-1080 was grown in MEM medium (Shanghai BasalMedia Technologies Co., LTD.) supplemented with 10% FBS, 1% penicillin-streptomycin solution, and 1% nonessential amino acids (NEAA-11140050; Gibco). A human fibrosarcoma cell line was stably transfected with FAP (HT1080-FAP) and cultured, as we previously described. All cell lines were cultured in a humid incubator with 5% CO2 at a temperature of 37 °C. Approval was granted by the Institutional Animal Care and Use Committee (Renji Hospital, School of Medicine, Shanghai Jiao Tong University) for all experimental protocols and procedures related to animal care. Panc-02 cells were implanted by subcutaneous injection of 5 × 10^6 tumor cells suspended in 100 μl PBS and matrigel matrix (Corning) with equal volume into the upper limb flank of C57BL/6 mice (Shanghai Sheng Chang Biotechnology Co., Ltd.). Four- to 6-week-old thymus-free nude mice (GemPharmatech) were subcutaneously inoculated with BxPC-3, T3M-4, HT-1080, and HT1080-FAP cells (5 × 10^6 in 100 μl of PBS mixing with 100 μl matrigel matrix) in the right shoulder. Follow-up microPET/CT imaging and ex vivo biodistribution experiments were performed when the tumor diameter reached 8 to 9 mm.
MicroPET imaging was performed on isoflurane-anesthetized mice injected intravenously via the lateral tail vein with around 3 MBq (2.5 nmol) of the radioligand at certain times. Regarding the FD1 blocking group, an excessive amount of unlabeled FD1 (200-fold) was simultaneously injected with [^68Ga]Ga-DOTA-FD1 into the tail vein of another batch of mice. Images were acquired using an IRIS PET/CT system (Inviscan Imaging Systems). PET data were reconstructed using a nonscatter-corrected 3D-ordered subset expectation […]/maximum a posteriori (OSEM3D/MAP) algorithm. The information was analyzed using OsiriX Lite software (Pixmeo SARL) and Inveon Research Workplace (Siemens Preclinical Solutions). The percentage of injected dose per gram of tissue (%ID/g, mean ± SD) was utilized to present the distribution of tracers in the ROI, encompassing tumor, heart, lung, liver, kidney, and muscle.

A short description of data set [5]: Ex vivo biodistribution after imaging, HT-1080 tumor models. The conditions noted are these: nude (thymus-free), mouse, intravenous, 3 MBq, total radioactivity, 4.5 h p.i. The protocol: A human pancreatic cancer cell line BxPC-3 and a murine pancreatic cancer cell Panc-02 were obtained from the American Type Culture Collection. The pancreatic cancer cell line T3M-4 was purchased by MeisenCTCC (Zhejiang, China). BxPC-3 and T3M-4 cell lines were grown in RPMI 1640 medium (Shanghai BasalMedia Technologies Co., LTD.) containing 10% FBS (GE Healthcare, Chicago, IL, USA) and 1% penicillin–streptomycin solution (Invitrogen). To culture the Panc-02 cell line, a medium called Dulbecco’s modified Eagle medium from Shanghai BasalMedia Technologies Co., LTD. was used, which consisted of 10% FBS. The cell line HT-1080 was grown in MEM medium (Shanghai BasalMedia Technologies Co., LTD.) supplemented with 10% FBS, 1% penicillin-streptomycin solution, and 1% nonessential amino acids (NEAA-11140050; Gibco). […]
After imaging collection and image reconstruction, samples from euthanized experimental mice, including blood and multiple significant organs, were harvested and weighed. The radioactivity in each collected tissue was counted using an automated gamma counter (Wizard 2480, PerkinElmer) and the accumulation of radioactivity in different tissues and organs was quantified and expressed as %ID/g (mean ± SD). […] At the end of each probe imaging and radioactivity counting study, tumor tissues were fixed in paraformaldehyde tissue fixative. […]

Data set [6] in a line: Ex vivo biodistribution after imaging, HT1080-FAP tumor models. The conditions noted are these: nude (thymus-free), mouse, intravenous, 3 MBq, total radioactivity; HT1080-FAP tumor, 4.5 h p.i. As for the experimental part: as §3
After imaging collection and image reconstruction, samples from euthanized experimental mice, including blood and multiple significant organs, were harvested and weighed. The radioactivity in each collected tissue was counted using an automated gamma counter (Wizard 2480, PerkinElmer) and the accumulation of radioactivity in different tissues and organs was quantified and expressed as %ID/g (mean ± SD). [^177Lu]Lu-DOTA-FD1 (~1.11 MBq, n = 3), [^177Lu]Lu-DOTA-FD2 (~1.11 MBq, n = 3), and [^177Lu]Lu-DOTA-FD3 (~1.11 MBq, n = 3) were injected into the tail vein of free nude mice at 6 h, 24 h, and 24 h for ex vivo biodistribution to verify the circulation time of the 3 probes in vivo. Biodistribution data from tumor-bearing mice injected with [^177Lu]Lu-DOTA-FD3 at 45 h (~1.11 MBq, n = 4) and 90 h (~1.11 MBq, n = 3) validated the prolonged enrichment of the probe at the tumor site. At the end of each probe imaging and radioactivity counting study, tumor tissues were fixed in paraformaldehyde tissue fixative. Briefly, sections of 10 μm were cut and stained for H&E following the standard protocols. IHC staining with a FAP antibody (ab227703, Abcam) was performed only on tumor tissues following accepted techniques.

As usually defined, the tissue uptake is the percentage of the injected dose found per gram of tissue. As for `CCCCCC(=O)N[C@H]1CSCc2cc(CSCCNC(=O)[C@H](CCCCNC(=O)CCCc3ccc(I)cc3)NC(=O)CN3CCN(CC(=O)O)CCN(CC(=O)O)CCN(CC(=O)O)CC3)cc(c2)CSC[C@@H](C(=O)O)NC(=O)[C@H](Cc2ccccc2)NC(=O)[C@H](CCC(N)=O)NC(=O)[C@H]([C@@H](C)O)NC(=O)[C@@H]2CCCN2C(=O)[C@@H]2CCCN2C1=O` [[^68Ga]Ga-DOTA-FD2, metal not drawn], the tissue uptake at 4 h in data set [1] was 7.67 ± 0.38 %ID/g; in data set [2] it was 6.9 ± 0.51 %ID/g; in data set [3], 8.1 ± 0.52 %ID/g; in data set [4] (4 h), 9.37 ± 0.61 %ID/g. The tissue uptake at 0.5 h in data set [4] (30 min) came to 6.63 ± 0.64 %ID/g. Further, the tissue uptake at 2 h in data set [4] (2 h) was determined as 8.23 ± 2.61 %ID/g. Also, the tissue uptake at 4.5 h was found to be 10.4 ± 1.84 %ID/g in data set [5] and 11.9 ± 1.83 %ID/g in data set [6].
